Experiment [1] in a line: Induction of ROS generation in PBS at 10 uM incubated for 10 mins under 1.0 MHz, 1.2W/cm2 ultrasound treatment by DCFH staining based fluorescence assay. The experiment is classed as functional.
For another experiment, the system named is HCT-116. The experiment in a line: Induction of apoptosis in MTAP knocked out human HCT-116 cells at 0.1 uM preincubated for 24 hrs followed by sonication for 4 mins by annexin V-FITC/PI staining based flow cytometry analysis relative to control. The experiment is classed as functional, cell-based. Particulars: time 1444.0 min.

Activity calls are given as the source filed them. The calls are words filed in the database; no cut-off is given here.

Take `CCOc1ncc2cc(-c3ccc4nc5n(c4c3)CCN(C(C)=O)C5)c(=O)n(-c3ccc(OC(F)F)cc3)c2n1`: in experiment [1], the result was inactive.
Regarding `CCOc1ncc2cc(-c3ccc4c(c3)C3(CC3)CO4)c(=O)n(-c3ccc(OC(F)F)cc3)c2n1`, the result in experiment [1] was Active.
As for `CCOc1ncc2cc(-c3ccc4nc5n(c4c3)CCN(C)C5)c(=O)n(-c3ccc(OC(F)F)cc3)c2n1`, the outcome in experiment [1] was inactive. Besides, the result in the experiment with HCT-116 was Active.
For `CCOc1ncc2cc(-c3ccc4c(c3)OCC3(CCN(C)CC3)O4)c(=O)n(-c3ccc(OC(F)F)cc3)c2n1`, the result in experiment [1] was Active.

Source of the values: ChEMBL document CHEMBL5532680, “Identification of a Sonically Activated Degrader of Methionine Adenosyltransferase 2A by an in Silico Approach Assisted with the Hole-Electron Analysis” (J Med Chem, 2024).
